Measured values as given in patent publication US12129259B1, “Pyrazino[1′,2′:1,5]pyrazolo[4,3-b][1,6]naphthyridines compounds as CK2 inhibitors” (KING FAISAL UNIVERSITY, priority 2023, dated 2024).

How the values were obtained:
HCT116 (colon) = assay: In vitro cytotoxic activity MTT assay, HCT116; format: cell-based; conditions: Homo sapiens, HCT-116; cells exposed for 96 hours; 50% inhibition of cell proliferation; read-out: Cytotoxicity activity IC50, HCT116 (colon)
Procedure: (§1) Compounds 1-16 were screened for their in vitro cytotoxic activity utilizing a 3-(4,5-dimethyl-thiazol-2-yl)-2,5-diphenyltetrazolium bromide (MTT) assay against selected cancer human cell lines consisting of PC3 (prostate), HCT116 (colon), A375 (melanoma), H1299 (lung), MIAPaCa-2 (pancreas), HL60 (leukemia), MCF7 (breast), MDA-MB-231 (breast) (T. Mosmann, J. Immunol. Meth., 1983, 65, 55-63). The cells were cultured at 37° C. in RMPI1640 medium supplemented with 10% fetal bovine serum, 50 IU/mL penicillin, and 50 μg/mL streptomycin in a 5% CO2 incubator. All cells were sub-cultured 3 times/week by trypsinisation. Viable cells were seeded and allowed to adhere for 12 h before a test drug was added in 96-well plates at an initial density of 1.0×10^5 cells/mL. Tumor cell lines were separately exposed to various concentrations of the tested compounds followed by incubation at a temperature of 37° C. during 96 hours inside a medium of fresh RMPI 1640. Cells were subsequently incubated at 37° C. using MTT at 0.5 mg/mL during 4 hours. After removal of supernatant, formazan crystals were dissolved in isopropanol and the optical density was measured at 570 nm. CX-4945 was used as a positive control.

PC3 (prostate) = assay: In vitro cytotoxic activity MTT assay, PC3; format: cell-based; conditions: Homo sapiens; cells exposed for 96 hours; 50% inhibition of cell proliferation; read-out: Cytotoxicity activity IC50, PC3 (prostate)
Procedure: as §1

MDA-MB-231 (breast) = assay: In vitro cytotoxic activity MTT assay, MDA-MB-231; format: cell-based; conditions: Homo sapiens, cells exposed for 96 hours, 50% inhibition of cell proliferation, read-out: Cytotoxicity activity IC50, MDA-MB-231 (breast)
Procedure: as §1

A375 (melanoma) = assay: In vitro cytotoxic activity MTT assay, A375; format: cell-based; conditions: Homo sapiens, A-375; cells exposed for 96 hours; 50% inhibition of cell proliferation; read-out: Cytotoxicity activity IC50, A375 (melanoma)
Procedure: as §1

HL60 (leukemia) = assay: In vitro cytotoxic activity MTT assay, HL60; format: cell-based; conditions: Homo sapiens, HL-60; cells exposed for 96 hours; 50% inhibition of cell proliferation; read-out: Cytotoxicity activity IC50, HL60 (leukemia)
Procedure: as §1

recombinant human CK2 = molecular target: T1, recombinant human CK2 (Homo sapiens, UniProt P68400); assay: CK2 Kinase Assay (33P-ATP, substrate peptide RRRDDDSDDD); format: biochemical; conditions: final ATP concentration 15 μM; 10 min at 30° C.; eight concentrations; read-out: protein kinase CK2 IC50
T1 construct: purchased Millipore
T1 sequence (P68400 whole entry): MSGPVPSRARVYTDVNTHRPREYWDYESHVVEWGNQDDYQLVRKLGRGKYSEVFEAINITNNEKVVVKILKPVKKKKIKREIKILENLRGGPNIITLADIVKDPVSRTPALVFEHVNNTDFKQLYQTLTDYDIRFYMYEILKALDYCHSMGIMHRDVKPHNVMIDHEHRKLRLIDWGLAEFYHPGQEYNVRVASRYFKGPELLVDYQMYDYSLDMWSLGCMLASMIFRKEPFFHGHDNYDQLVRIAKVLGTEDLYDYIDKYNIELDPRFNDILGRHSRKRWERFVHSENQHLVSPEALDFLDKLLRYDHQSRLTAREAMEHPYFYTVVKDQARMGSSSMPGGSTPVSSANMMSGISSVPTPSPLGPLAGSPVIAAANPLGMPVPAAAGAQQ
T1 sequence (P67870 whole entry partner): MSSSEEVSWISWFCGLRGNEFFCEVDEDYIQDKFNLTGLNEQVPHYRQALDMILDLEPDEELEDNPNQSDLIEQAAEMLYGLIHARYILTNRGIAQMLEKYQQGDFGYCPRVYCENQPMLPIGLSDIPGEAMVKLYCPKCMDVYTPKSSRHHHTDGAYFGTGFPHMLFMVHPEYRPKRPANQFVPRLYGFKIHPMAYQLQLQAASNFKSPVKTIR
Procedure: CK2 Kinase Assay was conducted using the protocol as described in Pierre F. et al; J. Med. Chem. 2011, 54, 635-654. The tested compounds in aqueous solution were added at a volume of 10 μL to a reaction mixture comprising 10 μL of assay dilution buffer (ADB; 20 mM MOPS, pH 7.2, 25 mM β-glycerol phosphate, 5 mM EGTA, 1 mM sodium orthovanadate, and 1 mM dithiothreitol), 10 μL of substrate peptide (RRRDDDSDDD, dissolved in ADB at a concentration of 1 mM), 10 μL of recombinant human CK2 (RRββ-holoenzyme, 25 ng dissolved in ADB; Millipore). Reactions were initiated by the addition of 10 μL of ATP solution (90%75 mMMgCl2, 75 µM ATP (final ATP concentration: 15 μM) dissolved in ADB; 10% [γ-33P] ATP (stock 1 mCi/100 μL; 3000 Ci/mmol (Perkin-Elmer) and maintained for 10 min at 30° C. The reactions were quenched with 100 μL of 0.75% phosphoric acid and then transferred to and filtered through a phosphor cellulose filter plate (Millipore). After washing each well five times with 0.75% phosphoric acid, the plate was dried under vacuum for 5 min and, following the addition of 15 μL of scintillation fluid to each well, the residual radioactivity was measured using a Wallac luminescence counter. The IC50 values were derived from eight concentrations of test inhibitors.

MCF7 (breast) = assay: In vitro cytotoxic activity MTT assay, MCF7; format: cell-based; conditions: Homo sapiens, cells exposed for 96 hours, 50% inhibition of cell proliferation, read-out: Cytotoxicity activity IC50, MCF7 (breast)
Procedure: as §1

MIAPaCa-2 (pancreas) = assay: In vitro cytotoxic activity MTT assay, MIAPaCa-2; format: cell-based; conditions: Homo sapiens, MIA PaCa-2; cells exposed for 96 hours; 50% inhibition of cell proliferation; read-out: Cytotoxicity activity IC50, MIAPaCa-2 (pancreas)
Procedure: as §1

H1299 (lung) = assay: In vitro cytotoxic activity MTT assay, H1299; format: cell-based; conditions: Homo sapiens, NCI-H1299; cells exposed for 96 hours; 50% inhibition of cell proliferation; read-out: Cytotoxicity activity IC50, H1299 (lung)
Procedure: as §1

`Clc1cccc(Nc2c3cnccc3nc3c2nn2ccncc32)c1` [Compound (1), N-(3-chlorophenyl)pyrazino[1′,2′:1,5]pyrazolo[4,3-b][1,6]naphthyridin-7-amine] gave an IC50 (HCT116 (colon)) of 1700 nM, an IC50 (PC3 (prostate)) of 1400 nM and an IC50 (MDA-MB-231 (breast)) of 5300 nM. It also gave an IC50 (A375 (melanoma)) of 3600 nM, an IC50 (HL60 (leukemia)) of 2900 nM and an IC50 (recombinant human CK2) of 100000 nM. It also gave an IC50 (MCF7 (breast)) of 6100 nM, an IC50 (MIAPaCa-2 (pancreas)) of 1100 nM and an IC50 (H1299 (lung)) of 2500 nM.
